Patent publication US11548855B2, “Pyrazole amide compound and application thereof, and fungicide” (Shandong United Pesticide Industry Co. Ltd., priority 2017, dated 2023)

Legend:
[1] = tested on: corn rust (Puccinia sorghi); test: Greenhouse pot test, corn rust; format: in vivo; conditions: Puccinia sorghi, 168 h, read-out: Control effect (%) Corn rust
Method: (§1) Test method: each of the test compounds in Table 1 was dispensed to 5 wt % emulsifiable concentrate (hereinafter referred to as 5% EC). The greenhouse pot test was used in each experiment, and the effective concentrations of each compound were illustrated in Table 1.
Corn rust: two-three leaf stage potted corn seedling with uniform growth was selected and made foliar spray treatment with 5% EC, the blank control sprayed with clean water was additionally arranged, three replicates were carried out. After 24 h, the leaves of the host plants were inoculated with sporangial suspensions of the fungi corn rust (Puccinia sorghi), the plants were stored in humidity chamber (temperature: lighting 25° C., dark 20° C., relative humidity 95-100%) and then transferred to greenhouse (25±1° C.) 24 h after infection. After 7 days, the screening results were investigated according to the disease incidence condition of blank control.
(§2) The investigation method: “Guidelines for the field efficacy trials of pesticides” was adopted as the grading standard, and the control effect in a unit of % was calculated based on the disease index. Disease index=Σ(number of diseased leaves at each grade×relative grade value)×100/(total number of leaves×9); Control effect (%)=(disease index of control−disease index of treated)×100/disease index of control;
(§3) The compounds provided by the present disclosure and some control compounds were tested by the same methods in the Test example 1, except that the effective concentrations of the compounds in this Test example are shown in Table 2.

[2] = tested on: wheat powdery mildew (Erysiphe graminis); test: Greenhouse pot test, wheat powdery mildew; format: in vivo; conditions: Blumeria graminis, 168 h, read-out: Control effect (%) Wheat powdery mildew
From the text: as §1
Wheat powdery mildew: two-leaf stage potted wheat seedling with uniform growth was selected and made foliar spray treatment with 5% EC, the blank control sprayed with clean water was additionally arranged, three replicates were carried out. After 24 h, the leaves of the host plants were inoculated by shake-down method with sporangial suspensions of the fungi wheat powdery mildew (Erysiphe graminis), the plants were stored in a greenhouse (25±1° C.). After 7 days, the screening results were investigated according to the disease incidence condition of blank control.
as §2, §3

soybean rust = test: Field trial, soybean rust; format: in vivo, Phakopsora pacchyrhizi Sydow; conditions: sprayed 2 times
Method: III. The Soybean Rust Test Method:
(§4) Spray method: Stein and leaf spraying (Applicator: Xinkangda lithium battery electric sprayer).
Test crops: soybean (cultivars: Glycine max(L) Merr)
(§5) The test was carried out in Shenyang, the test field was loam with rich organic matters and normal management of fertilizer and water, and no other pesticide was applied during the test.
(§6) The arrangement of the test plot was random block permutation; the area of the test plot: 25 m^2; repeat times: 3 times; spray time and frequency: 2 times on Aug. 11, 2018 and Aug. 21, 2018 respectively. Spray dosage: each treatment was repeated 3 times, the total water consumption was 8 L. No other pesticide was applied during the test. […] 15-20 days after the second spray treatment, the control effect was investigated.
The incidence of disease spots in each plot was investigated by diagonal selecting 5 samples/plot and 20 plants/samples, 10 leaves/plant was surveyed.
(§7) The grading standard of crop disease was as follows:
(§8) Grade 0: no leaf-spot area;
(§9) Grade 1: the ratio of leaf-spot area to leaf area is less than 5%;
(§10) Grade 3: the ratio of leaf-spot area to leaf area is between 6-25%;
(§11) Grade 5: the ratio of leaf-spot area to leaf area is between 26-50%;
(§12) Grade 7: the ratio of leaf-spot area to leaf area is between 51-75%;
(§13) Grade 9: the ratio of leaf-spot area to leaf area is between 76-100%;
(§14) According to the relevant content of the “Guidelines for the field efficacy trials of pesticides of the People's Republic of China (PRC)”, the disease index was calculated according to the grading standard, and the control effect in a unit of % was calculated based on the disease index, and the test data of significance analysis was performed by using DPS evaluation system (DMRT).

[3] = tested on: soybean rust (Phakopsora pacchyrhizi Sydow); test: Greenhouse pot test, soybean rust; format: in vivo; conditions: Glycine max, 168 h, read-out: Control effect (%) Soybean rust
Method: as §1
Soybean rust: two-leaf stage potted soybean seedling with uniform growth was selected and made foliar spray treatment with 5% EC, the blank control sprayed with clean water was additionally arranged, three replicates were carried out. After 24 h, the leaves of the host plants were inoculated with sporangial suspensions of the fungi soybean rust (Phakopsora pacchyrhizi Sydow), the plants were stored in humidity chamber (temperature 20-25° C., relative humidity>95%) and then transferred to greenhouse (25±1° C.) 8-16 h after infection. After 7 days, the screening results were investigated according to the disease incidence condition of blank control.
as §2, §3

wheat powdery mildew [4] = test: Field trial, wheat powdery mildew; format: in vivo, Erysiphe graminis; conditions: 100 mg/L, sprayed once
Method: II. The Wheat Powdery Mildew Test Method:
as §4
Test crops: wheat (cultivars: Liaochun 10)
as §5
The arrangement of the test plot was random block permutation; the area of the test plot: 15 m^2; repeat times: 3 times; spray time and frequency: Sep. 17, 2018, once. Spray dosage: each treatment was repeated 3 times, the total water consumption was 8 L. No other pesticide was applied during the test.
The incidence of disease spots in each plot was investigated by diagonal selecting 4 samples/plot and 20 plants/samples, and the first leaf below the flag leaf of each plant was investigated.
as §7, §8, §9, §10, §11, §12, §13, §14

cucumber powdery mildew [5] = test: Greenhouse pot test, cucumber powdery mildew; format: in vivo; conditions: Cucumis sativus, 192 h, greenhouse pot, read-out: Control effect (%) Cucumber powdery mildew
Method: as §1
Cucumber powdery mildew: cucumber seedling in a true leaf period with uniform growth was selected, and dried in the shade for 24 h after spray treatment. Fresh cucumber powdery mildew spores on the cucumber leaves were collected and washed, and filtered through a double gauze to prepare a spores suspension with concentration of about 100,000/mL, then spray inoculation was applied. The test materials inoculated were moved into a greenhouse (lighting 21-23° C.), after 8 days, the grading investigation was carried out according to the disease incidence condition of blank control, and the control effect in a unit of % was calculated according to disease index.
as §2, §3

cucumber powdery mildew [6] = test: Field trial, cucumber powdery mildew; format: in vivo; conditions: 100 mg/L, sprayed twice
Method: I. Cucumber Powdery Mildew Test Method:
Spray method: Stein and leaf spray (Applicator: Xinkangda lithium battery electric sprayer).
Test crop: cucumber (cultivars: Tianjiao7)
as §5
as §6, with “15” for “25”, “period between Sep. 28,” for “2 times on Aug. 11,”, “Oct. 11, 2018, twice.” for “Aug. 21, 2018 respectively.”, “second” for “second spray”, “incidence of disease spots in each plot” for “control effect”
The incidence of disease spots in each plot was investigated by randomly selecting 4 samples/plot and 2 plants/samples, all leaves/plant, the incidence of the whole plant was recorded by counting the number of disease leaves and determining the incidence grade.
Grading standard (in units of leaves):
as §8, §9
Grade 3: the ratio of leaf-spot area to leaf area is between 6-10%;
Grade 5: the ratio of leaf-spot area to leaf area is between 11-20%;
Grade 7: the ratio of leaf-spot area to leaf area is between 21-40%;
Grade 9: the ratio of leaf-spot area to leaf area is more than 40%;
as §14

wheat powdery mildew [7] = conditions: cited from earlier work
wheat powdery mildew [8] = conditions: cited from earlier work; remark: listed apart in the source

SMILES: Cn1cc(C(=O)Nc2ccccc2Oc2ccc(C(F)(F)F)cc2I)c(C(F)F)n1 [Compound 4]
- pest or weed control at 1.5625 µg/mL ([1]; 1.5625 mg/L): 50%
- pest or weed control at 3.125 µg/mL ([1]; 3.1250 mg/L): 90%
- pest or weed control at 6.25 µg/mL ([1]; 6.25 mg/L): 98%
- pest or weed control at 25 µg/mL ([1]; 25 mg/L): 100%
- pest or weed control at 100 µg/mL ([1]; 100 mg/L): 100%
- pest or weed control at 1.5625 µg/mL ([2]; 1.5625 mg/L): 30%
- pest or weed control at 3.125 µg/mL ([2]; 3.1250 mg/L): 70%
- pest or weed control at 6.25 µg/mL ([2]; 6.25 mg/L): 10%
- pest or weed control at 25 µg/mL ([2]; 25 mg/L): 25%
- pest or weed control at 100 µg/mL ([2]; 100 mg/L): 60%
- Control effect (%) (soybean rust; dosage 50 mg/L): 80.14%
- Control effect (%) (soybean rust; dosage 75 mg/L): 85.62%
- Control effect (%) (soybean rust; dosage 100 mg/L): 93.11%
- pest or weed control at 1.5625 µg/mL ([3]; 1.5625 mg/L): 98%
- pest or weed control at 3.125 µg/mL ([3]; 3.1250 mg/L): 100%
- pest or weed control at 6.25 µg/mL ([3]; 6.25 mg/L): 100%
- pest or weed control at 25 µg/mL ([3]; 25 mg/L): 100%
- pest or weed control at 100 µg/mL ([3]; 100 mg/L): 100%

SMILES: OC(Cc1ccccc1Cl)(Cn1nc[nH]c1=S)C1(Cl)CC1 (stereo not shown) [Prothioconazole]
- Control effect (%) Wheat powdery mildew (wheat powdery mildew [4]): 93%
- pest or weed control at 1 µg/mL ([2]; 1 mg/L): 30%
- pest or weed control at 2 µg/mL ([2]; 2 mg/L): 50%
- pest or weed control at 4 µg/mL ([2]; 4 mg/L): 70%
- Control effect (%) (soybean rust; dosage 50 mg/L): 91.15%
- pest or weed control at 1 µg/mL (cucumber powdery mildew [5]; 1 mg/L): 75%
- pest or weed control at 2 µg/mL (cucumber powdery mildew [5]; 2 mg/L): 80%
- pest or weed control at 4 µg/mL (cucumber powdery mildew [5]; 4 mg/L): 90%
- pest or weed control at 6.25 µg/mL (cucumber powdery mildew [5]; 6.25 mg/L): 85%
- pest or weed control at 25 µg/mL (cucumber powdery mildew [5]; 25 mg/L): 98%
- pest or weed control at 100 µg/mL (cucumber powdery mildew [5]; 100 mg/L): 100%
- pest or weed control at 0.5 µg/mL ([3]; 0.5 mg/L): 95%
- pest or weed control at 1 µg/mL ([3]; 1 mg/L): 100%
- pest or weed control at 2 µg/mL ([3]; 2 mg/L): 100%
- pest or weed control at 4 µg/mL ([3]; 4 mg/L): 100%

SMILES: CON(C(=O)c1cn(C)nc1C(F)F)C(C)Cc1c(Cl)cc(Cl)cc1Cl (stereo not shown) [Pydiflumetofen]
- Control effect (%) Cucumber powdery mildew (cucumber powdery mildew [6]): 86.0%
- Control effect (%) Wheat powdery mildew (wheat powdery mildew [4]): 91.0%

SMILES: CNC(=O)/C(=N/OC)c1ccccc1CO/N=C(C)/C=C/c1c(Cl)cccc1Cl [fenaminstrobin]
- activity against wheat powdery mildew in greenhouse pot test (wheat powdery mildew [7]): extremely high activity
- control effect in field test (wheat powdery mildew [8]): worse
